Assay results as given in a melting point compilation (Tetko et al.; mined from patent text by program, amines drawn as free bases though some values may be those of a salt).

Structure (SMILES) | melting point
COC(=O)c1cc(C(=O)NCC(C)(C)C)ccc1-c1cc(C(=O)OC(C)(C)C)cc(F)c1C | 68 to 74 °C
COC(=O)c1ccc(NS(=O)(=O)c2cc(OCC(F)(F)F)cc(OCC(F)(F)F)c2)cn1 | 158 to 160 °C
COc1cc2c(cc1OCCN(C)C)N(C(=O)c1ccc(-c3ccc(C#N)cc3C)cc1)CC2 | 167 to 171 °C
Cn1nnnc1-c1cn(C)c2cc(S(=O)c3ccccc3)ccc2c1=O (stereo not given) | 217 to 220 °C
COc1ccc(C(=O)Nc2ccccc2)cc1NCc1ccc(N(C)C)cc1 | 195 to 197 °C
CC(C)N1C(=O)NCc2c(-c3ccccc3)cccc21 | 182 to 183 °C
Cc1ncn(-c2ccc(C=O)cc2)n1 | 125 to 128 °C
O=C1Nc2cc(Cl)ccc2C(=O)C1c1cccs1 (stereo not given) | 305 to 307 °C
CCOC(=O)C(=Cc1ccc(O)cc1)C(=O)CCl | 92 to 95 °C
CCc1cc(C(=O)NCc2ccc(-c3ccc(OC(F)F)cc3)cc2)n(C)n1 | 107 to 108 °C
COc1ccc(C)c(Nc2c(C#N)cnc3c2C=C2N=C(NCCN4CCOCC4)N=C2C3)c1 | 148 to 150 °C
C=CC1(O)CN2CCC1CC2 (stereo not given) | 76 to 80 °C
CCN1Cc2ccccc2C(=O)c2cc(CC(=O)O)ccc21 | 141 to 144 °C
COC(=O)c1ccc(Cl)c(CBr)c1Cl | 51 to 54 °C
Cc1nc(N2CCN(Cc3ccccc3)C2=O)sc1C(=O)NCc1ccc(F)cc1 | 147 to 148 °C
CCOC(=O)CCC(=O)NCc1ccc(N)cc1 | 62 to 64 °C
CCCCc1nn(-c2cc(N)ccc2Cl)c(C(=O)OCC)c1Cc1ccc(-c2ccccc2S(=O)(=O)NC(=O)c2ccccc2Cl)cc1 | > 75 °C
CN(C)CCC1CCCCN1C1c2ccccc2Oc2ccccc21 (stereo not given) | 64 to 67 °C
C[C@]1(CN2CCN(C(=O)OCc3ccc(C(F)(F)F)cc3)CC2)Cn2cc([N+](=O)[O-])nc2O1 | 140 to 142 °C
CC(C)(C)c1cc(CCc2ccccc2NC(=O)NCCCCc2ccccc2)cc(C(C)(C)C)c1O | 157 °C
O=C(Nc1nc[nH]n1)c1ccc(-c2ccc3nnn(Cc4ccc5ncccc5c4)c3n2)cc1Cl | 286 to 288 °C
CN(C#N)C1CN(C(=O)Nc2ccc(C(F)(F)F)cc2)N=C1c1ccc(Cl)cc1 (stereo not given) | 216 to 217 °C
CCc1cc(C(=O)c2ccccc2Cl)c(-n2c(C)nnc2CNC(=O)Cc2ccccc2)s1 | 153 to 155 °C
O=C(c1ccc(F)cc1F)C1CCN(CC2=Cc3ccccc32)CC1 | 70 °C

Structure (SMILES) | melting point
COc1ccc2c(c1)C(NCc1cc(OC)c(OC)cc1N)CCO2 (stereo not given) | 90 to 92 °C
COc1ccccc1[C@@H]1O[C@@H](CC(=O)O)C(=O)N(CC(C)(C)C)c2ccc(Cl)cc21 | 179 to 183 °C
Cc1cccc2c1C(NCCSCc1ccc(CN(C)C)o1)=NS2(=O)=O | 90 to 92 °C
Cn1c(C(=O)O)cc(=O)c2oc3ccccc3c(=O)c21 | 220 °C
CCOC(=O)C1=C(C)NC(c2ccccc2)=NC1c1ccccc1[N+](=O)[O-] (stereo not given) | 102 to 105 °C
CC(C)(Cc1ccc(O)c2ncccc12)[N+](=O)[O-] | 133 to 134 °C
N#Cc1c(F)ccc(OCc2nc3cc(Cl)ccc3s2)c1F | 145 to 147 °C
Cl/C(=C\c1ccc(Br)cc1)c1ccc(Cl)cc1 | 108 °C
O=C(COc1ccc(-c2ccc(F)cc2)cc1)Nc1cscc1C(=O)O | 244 to 251 °C
CC12CCC(O)CC1CCC1C2CCC2(C)C(C(=O)COc3cccnc3)CCC12 (stereo not given) | 63 to 66 °C
COC(=O)c1cc(=O)n(-c2c(Cl)cc(C(F)(F)F)cc2Cl)[nH]1 | 245 to 246 °C
Cc1oc(-c2ccccc2)nc1COc1ccc(Cn2cc(/C=C/C(=O)O)c(-c3ccccc3)c2)cc1 | 154 to 155 °C
COc1cc(-c2nn(C)c(C(N)=O)c2C)c(F)cc1Cl | 224 to 226 °C
O=C1NCCN1CCN1CCN([C@@H]2C[C@@H](c3ccc(F)cc3)c3ccccc32)CC1 | 94 to 97 °C
CC(O)COc1cccc(N)c1C(N)=O (stereo not given) | 115 to 118 °C
CCn1c(=O)c2[nH]c(/C=C/c3cc(OC)c4c(c3)OCO4)nc2n(CC)c1=O | > 270 °C
[N-]=[N+]=Nc1cccc2c1C(=O)N(CCCCCC(=O)Cl)C2=O | 68 to 69 °C
CCOc1cc(C)c(CCl)c(C)c1C | 63 to 64 °C
COc1cc2c(cc1OCc1ccccc1)C(c1ccccc1)=NCC2 | 134 to 137 °C
CCCCNS(=O)(=O)c1ccc(N2CCC(NC[C@H](O)c3ccc(O)c(NS(C)(=O)=O)c3)CC2)cc1 | 71 to 75 °C
Fc1cc2nc3c(cnn3-c3ccccn3)c(Cl)c2cc1F | 167 to 168 °C
CCOc1c(Nc2cc(C(F)(F)F)ccc2OC)c(=O)c1=O | 143 to 155 °C
O=Cc1cc(F)cc(Br)c1F | 36 to 38 °C
CCCc1c(O)ccc2c(OCc3ccccc3)cc(=O)oc12 | 213 to 214 °C

Structure (SMILES) | melting point
O=C1CN(SC(Cl)(Cl)Cl)C(=O)N1SC(Cl)(Cl)Cl | 142 °C
Cn1nc(-c2c(F)cccc2Cl)nc1-c1ccc(COc2ccc(C(F)(F)F)cc2Cl)c(Cl)c1 | 113 to 114 °C
CC(C)(C)OC(=O)NS(=O)(=O)c1ccc(Br)cc1 | 127 to 128 °C
CCOC(=O)NCCS(=O)CC(=O)O (stereo not given) | 93.1 to 94.1 °C
NC1N=C(N2CCCCC2)c2ccccc2NC1=O (stereo not given) | 103 to 105 °C
CCOC(=O)C1=C(C)NC(C)=C(C(=O)OCC)C1c1ccccc1C=CC(=O)OC | 138 to 140 °C
O=C(NCc1ccccc1)c1ccnc(NC(=O)c2cc(F)cc(F)c2)c1 | 185 to 187 °C
Cc1ccc(-c2csc(-c3ccc(C(=O)O)cc3)n2)cc1 | 289 to 290 °C
Cc1cc(Cl)cc(C(=O)NC(C)C)c1NC(=O)c1cc(Br)nn1N1C=CC=C(Cl)C1 | 159 to 161 °C
CCCN(C1=C(O)C[C@@](CCc2cccc(O)c2)(C2CCCC2)OC1=O)c1ccccc1 | 74 to 76 °C
CNc1nc2ccccc2c(-c2ccccc2)c1C(=O)N(C)Cc1cc(C(F)(F)F)cc(C(F)(F)F)c1 | 173 to 174 °C
CC(=O)Oc1cc(S(=O)(=O)Oc2ccc(C(=O)c3c(Cc4ccccc4)oc(C)c3C)cc2C2CCCC2)ccc1C(=O)O | 55 to 90 °C
COCC(=O)Nc1c(C(=O)CC(=O)Nc2nccs2)cccc1C(F)(F)F | 152 °C
Cc1nc(-c2ccc(NC(=O)OCc3ccccc3)cc2)c[nH]c1=O | 238 to 240 °C
CCOC(=NC(=O)c1cccc2ccccc12)c1ccc(Br)cc1 | 104 to 105 °C
CC12C=CCC1C1CCC3=CC(=O)CCC3=C1CC2 (stereo not given) | 87 to 92 °C
C[Si](C)(CCSCCCNC(=O)n1cc(F)c(=O)[nH]c1=O)c1ccccc1 | 93.5 to 94 °C
N#C/C=C1\CCc2ncc3c(c21)CCO3 | 231 to 233 °C
Nc1nc(-c2ccccc2)cc(C2CCN(C(=O)c3ccccc3)CC2)n1 | 104 to 105 °C
O=C(Nc1n[nH]c(=S)s1)NC(Cc1ccccc1)C(=O)NCc1cccnc1 (stereo not given) | 99 to 101 °C
CCOC(=O)COc1ccc(SCc2ccc3nc(-c4ccc(C(F)(F)F)cc4)sc3c2)cc1C | 176 to 177 °C
Cn1ncc2[nH]c3c(Br)cccc3c(=O)c21 | 287 °C
